For data set [1] the following is noted: in vivo; cited from earlier work.
The next data set in a line: serum half-life. The format is in vivo. Conditions: in words; compared with ceftriaxone.
The next data set deals with Enterobacter cloacae P99. Put plainly: MIC of ceftriaxone, alone and with compound of formula (I). The format is cell-based.
A further data set relates to various microorganisms. Put plainly: enhancement of antibacterial activity of ceftriaxone by compound of formula (I) (MIC data overall). It counts as cell-based. Conditions: with 1 μg/ml compound of formula (I); from β-lactamase inhibitory effect.
A further data set relates to Bacteroides fragilis. Conditions: coadministration with tazobactam; J. Antimicrobial Chemotherapy (1993), 32, 307-312; cited from earlier work.
Another data set relates to Klebsiella pneumoniae 4. Put plainly: MIC of ceftriaxone, alone and with compound of formula (I). It counts as cell-based.
The subject of data set [2] is Bacteroides fragilis VP1 8908. The data set is described as above. It counts as cell-based.
Where [3] appears, read: ceftriaxone + 1 μg/1 ml of compound of Formula (I).

Molecules are shown by their SMILES.

One may read the MIC as the lowest concentration that inhibits growth of the organism.

As to `C[C@]1(Cn2ccnn2)[C@H](C(=O)O)N2C(=O)C[C@H]2S1(=O)=O` [tazobactam], the serum half-lives entry in data set [1] was “ca. 1 hours”.

As for `O=C([O-])C1=CS[C@@H]2/C(=C\c3cn4c(n3)SCC4)C(=O)N12.[Na+]` (racemic), the serum half life result in the data set “serum half-life” is given as “more compatible with ceftriaxone”.

`CO/N=C(\C(=O)N[C@@H]1C(=O)N2C(C(=O)O)=C(CSc3nc(=O)c(=O)[nH]n3C)CS[C@H]12)c1csc(N)n1` [Ceftriaxone, [6R-[6α,7β(Z)]]-7-[[(2-Amino4-thiazolyl)(methoxyimino)acetyl]amino]-8-oxo-3-[[(1,2,5,6-tetrahydro-2-methyl-5-6-dioxo-1,2,4-triazin-3-yl)thio]-methyl]-5-thia-1-azabicyclo[4-2-O]oct-2-ene-2-carboxylic acid]: the “MIC + 1 μg/1 ml of compound of Formula (I)” value came to 0.5 µg/mL with Enterobacter cloacae P99 (Enterobacter cloacae P99, ceftriaxone + 1 μg/1 ml of compound of Formula (I)); 0.5 µg/mL in the data set on Klebsiella pneumoniae 4 (setting [3]); 2 µg/mL in data set [2] (setting [3]). Moreover, the minimal inhibitory concentration (MIC) was 128 µg/mL in the data set on Enterobacter cloacae P99 (Enterobacter cloacae, P99, read-out: MIC Ceftriaxone alone); 16 µg/mL with Klebsiella pneumoniae 4 (ceftriaxone alone); 128 µg/mL in data set [2] (VP18908, ceftriaxone alone). Also, the “enhancement of antibacterial activity of ceftriaxone” value in the data set with various microorganisms is “substantial enhancement of antibacterial activity”. In addition, the “activity of ceftriaxone against anaerobes such as Bacteroides fragilis” value with Bacteroides fragilis is “enhanced by coadministration with the β-lactamaseinhibitor tazobactam”. Further, the serum half-lives entry in data set [1] is on record as “ca. 8 hours”.

These data come from patent publication US6090801A, “Pharmaceutical compositions containing ceftriaxone and penems” (SmithKline Beecham p.l.c., priority 1993, dated 2000).
